The record followed here is patent publication US10004750B2, “Salt of cephalosporin derivative, its crystalline solid and a method of manufacturing thereof” (Shionogi & Co., Ltd., priority 2014, dated 2018).

Assay type in all cases: physicochemical
Series [1] is described as follows: pKa measurement by capillary electrophoresis method (CE method). The settings on record: 25° C., pH 2.5 to 11.5 buffer. From the text:
(Measuring Method by Capillary Electrophoresis Method, CE Method)
It is a method by using Capillary Zone Electrophoresis technique and a method of separation by using free electrophoresis of each sample component in a buffer including electrolyte.
After injecting a compound solution to fused silica capillary filling a buffer adjusting the pH 2.5 to 11.5, high voltage (Inlet side +, Outlet side −) is on capillary, and then a compound moves at a speed reflecting an ionized state at the pH of the buffer (a compound having (+) charge moves quickly, and a compound having (−) charged moves slowly). pKas was calculated by plotting the difference between the migration time of the compound and that of a neutral molecule (DMSO) against pH, and fitting. […]

Series [2] is described as follows: Solubility of the compound (IA) in water.
A short description of series [3]: Solid stability test of crystalline solid. The conditions noted are these: −20±5° C. or 5±5° C., light shielding, double polyethylene bag in metal can, 0, 3, 6, 9, 12 months. The protocol: The type I crystal D about 1 g was put in a polyethylene bag and tightened with a convex. This bag was further put in a polyethylene bag and tightened with a convex in the same way. The above sample of the same storage conditions was put together in a metal can as a stability evaluation sample. The storage conditions, storage period and test items are as follows.
• Temperature: −20±5° C. or 5±5° C. • Light shielding • Package form: double polyethylene bag, convex, metal can • Storage period: 0, 3, 6, 9, 12 months (Measurement)
Using the type I crystal D stored at the above storage conditions and storage period, after viewing the change in appearance, the contents of the compound (IA) and the related substances were measured by the following method.
Step 1: Preparation of a Sample Solution
About 40 mg of the sample was weighed precisely, and dissolved in a sample dilution solvent to be exactly 25 mL. • 5 mmol/L phosphate buffer/liquid chromatography acetonitrile mixture (9:1) was used as the above sample dilution solvent was used. Herein, water: 0.05 mol/L sodium dihydrogen phosphate test solution: 0.05 mol/L disodium hydrogen phosphate reagent mixture=18:1:1 (pH is about 7.1) was used as a phosphate buffer. Step 2: HPLC Measurement of Related Substances
The above sample solution was measured by liquid chromatography under the following test condition to measure peak areas of the compound (IA) and its related substances by the automatic integration method.
• Column: YMC-UltraHT Pro C18, φ2.0×100 mm, 2 μm, YMC • Column temperature: 35° C. • UV detection wavelength: 261 nm • Mobile phase: [A] […]
• Flow rate: 0.5 mL per minute (a retention time of the compound (IA) about 5 minutes) The amount of related substances in the sample was determined by using the following formula. […]
The above standard solution and sample solution was measured by liquid chromatography under the following test condition to determine a peak area of the compound (IA) by an automatic integration method. […]
The content of related substances in the sample was determined using the following formula. […]

Series [4] can be described thus: Dynamic vapor sorption measurement. The settings on record: 25° C. The protocol: Dynamic vapor sorption (DVS) is a gravimetric technique that measures how quickly and how much of water is absorbed and desorbed by a sample in several relative humidity (RH). A degree of water absorption is calculated by weight change in controlled humidity increased from 0% RH to 95% RH stepped 5% or 10%. Similarly, a degree of water desorption is calculated in humidity decreased from 95% RH to 0% RH. An absorption-desorption isotherm is obtained by plotting a value of weight change in each humidity. […] When the anhydrate crystal transforms to hydrate crystal by humidity, the results of measurement indicate transformation humidity and amount of crystal water. The dynamic vapor sorption measurement of the crystalline solid obtained in each example was carried out. The sample of about 18.0 mg was measured and transferred to a sample pan, and it was measured. The measurement condition is shown below. • Device: DVS Advantage made by Surface Measurement Systems LTD. • Measurement point: each 5% from RH95% to RH0%. • Temperature: 25° C. (Method of Measuring the Karl Fischer Method) The results of a dynamic vapor sorption measurement of the type I crystal D obtained in Example 6-1 were shown in FIG. 7 and Table 7. Dynamic vapor sorption measurement can be occurred errors within the range of ±0.5%. An increased amount of water (%) represents an increased amount of the type I crystal at 0% RH.

The nature of series [5]: Solubility of sodium salt in various aqueous media. How it is done:
To anisole (1.54 L) cooling in dry ice-ethanol bath was added aluminium chloride (495.4 g, 3.71 mol) followed by dichloromethane. 610 g of the crude product containing the compound 8 obtained by Step 1 was dissolved in a mixed solution of dichloromethane (0.51 L) and anisole (1.03 L) and spent 1 hour adding dropwise to the above aluminium chloride solution re-cooling to −40° C. The container used for the dropwise was washed with a mixed solution of dichloromethane (0.36 L) and anisole (0.51 L) and the wash fluid was added to the reaction solution. The reaction solution was stirred at −20° C. for 2 hours, and added to a mixed solution of ethanol (7.1 L), 1 mol/L hydrochloric acid (7.1 L) while stirring under cooling in ice-bath. The mixed solution was stirred for 30 minutes under ice-cooling, dichloromethane (5.14 L) and saturated brine (257 mL) was added, the separated aqueous layer was washed with dichloromethane (5.14 L). The organic layer was extracted with a mixture of water (2.57 L) and saturated brine (100 mL), and the separated aqueous layer was combined with the previous aqueous layer. The aqueous layer was stirred under cooling in ice-bath, and 2 mol/L sodium hydroxide aqueous solution was added to adjust pH to 1.5 and the solution was left to stand. The aqueous layer was concentrated and purified by HP20SS column (eluent: 13% acetonitrile water). Sodium bicarbonate (8.75 g) was added to the collected fractions containing the target product and the resulting solution was concentrated under reduced pressure until 500 mL. The solution was diluted by adding water (1.6 L) and filtered with cotton plug, and then the filtrate was lyophilized to yield the compound 9 (77.8 g). • Elemental analysis: (calculated as C30H33ClN7O10S2Na 4.5H2O) • Calculated: C; 42.13, H; 4.95, N; 11.46, S; 7.50, Cl; 4.14, Na; 2.69(%) • Measured: C; 42.22, H; 4.88, N; 11.24, S; 7.01, Cl; 4.04, Na; 2.74(%) The solubility of the obtained compound 9 in various aqueous medium (water for injection, saline, dextrose solution) was all 100 mg/mL or more, and they are very high solubility.

As to `CC(C)(O/N=C(\C(=O)N[C@@H]1C(=O)N2C(C(=O)[O-])=C(C[N+]3(CCNC(=O)c4ccc(O)c(O)c4Cl)CCCC3)CS[C@H]12)c1csc(N)n1)C(=O)O` (stereo in doubt) [compound (IA)], in series [1], the pKa1 was determined as 4.2 and the pKa2 is recorded as 7.2. Further, in series [2], the solubility in water result is “very low”.

For `CC(C)(O/N=C(\C(=O)N[C@@H]1C(=O)N2C(C(=O)[O-])=C(C[N+]3(CCNC(=O)c4ccc(O)c(O)c4Cl)CCCC3)CS[C@H]12)c1csc(N)n1)C(=O)O` [type I crystal D], in series [3], the “change in appearance on storage” value is on record as “no change in the appearance”. In addition, the “increase of content of related substances on storage (HPLC)” value in series [3] is given as “not observed”. For the same compound, the “solid storage stability (overall)” value in series [3] was “very stable”. Also, the “Increased amount of water (%)” value in series [4] (Relative humidity 0% RH, relative to type I crystal at 0% RH) is reported as 0.00%; in series [4] (Relative humidity 5% RH, relative to 0% RH) it was 3.33%; in series [4] (Relative humidity 10% RH, relative to 0% RH), 5.26%; in series [4] (Relative humidity 15% RH, relative to 0% RH) it was 7.70%; in series [4] (Relative humidity 20% RH, relative to 0% RH), 10.53%; in series [4] (Relative humidity 25% RH, relative to 0% RH), 11.67%. Moreover, the “Increased amount of water (%)” value came out at 12.28% in series [4] (Relative humidity 30% RH, relative to 0% RH); 12.75% in series [4] (Relative humidity 35% RH, relative to 0% RH); 13.16% in series [4] (Relative humidity 40% RH, relative to 0% RH); 13.54% in series [4] (Relative humidity 45% RH, relative to 0% RH); 13.91% in series [4] (Relative humidity 50% RH, relative to 0% RH); 14.25% in series [4] (Relative humidity 55% RH, relative to 0% RH). The “Increased amount of water (%)” value in series [4] (Relative humidity 60% RH, relative to 0% RH) amounted to 14.55%; in series [4] (Relative humidity 65% RH, relative to 0% RH) it was 14.93%; in series [4] (Relative humidity 70% RH, relative to 0% RH), 15.26%; in series [4] (Relative humidity 75% RH, relative to 0% RH) it was 15.55%; in series [4] (Relative humidity 80% RH, relative to 0% RH), 15.82%; in series [4] (Relative humidity 85% RH, relative to 0% RH) it was 16.08%. Also, the “Increased amount of water (%)” value is reported as 16.34% in series [4] (Relative humidity 90% RH, relative to 0% RH) and 16.60% in series [4] (Relative humidity 95% RH, relative to 0% RH).

For the compound `CC(C)(O/N=C(\C(=O)N[C@@H]1C(=O)N2C(C(=O)[O-])=C(C[N+]3(CCNC(=O)c4ccc(O)c(O)c4Cl)CCCC3)CS[C@H]12)c1csc(N)n1)C(=O)O` [compound 9], the solubility – broadly, the concentration that dissolves in the medium under given conditions – in series [5] (dextrose solution, saline or isotonic) is no less than 100 mg/mL; in series [5] (saline, saline or isotonic) it was no less than 100 mg/mL; in series [5] (water for injection, water), no less than 100 mg/mL.
